Some test systems named below: 786-0; HCC 2998; HCT-116; HOP-92; HT-29; IGROV-1; K562; KM12; LOX IMVI; MCF7; MDA-MB-231; NCI-H522; OVCAR-8; RPMI-8226; SF-295; SF-539; SN12C; SNB-75; UACC-62; UO-31.
Common to all, as to test: DTP human tumour cell line panel, 48 h

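Growth conditions: 96-well plates. Treatment: test compound, 48 hours, 5 concentrations. Analysis: linear interpolation between bracketing concentrations; unreached endpoints set to highest concentration. The concentration for 50% growth inhibition is given as GI50.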 The source made the active and inactive calls. Rule as the data show it: active = GI50 up to about 1.1 µM and inactive = higher. Where only a bound is given, the exact number is not on record here.

The term GI50 denotes the concentration at which growth is held to half of that of the control. In the case of `CCCCCCCCCCCCCCCCCCNc1nc(=O)n(C2CC(OP(=O)(O)OCC3OC(n4cc(F)c(=O)[nH]c4=O)CC3O)C(CO)O2)cc1F` (stereo not given), the GI50 in the experiment on 786-0 was 49.4 µM (inactive); with HCC 2998 it was 5.97 µM (inactive); in the experiment on HCT-116, 47.1 µM (inactive); with HOP-92 it was 5.33 µM (inactive); in the experiment on HT-29 it was 16.6 µM (inactive); in the experiment with IGROV-1 it was 46.3 µM (inactive). Moreover, the GI50 is 26.9 µM (inactive) in the experiment on K562; 11.2 µM (inactive) in the experiment with KM12; 26.1 µM (inactive) with LOX IMVI; 9.86 µM (inactive) with MCF7; > 100 µM (inactive) in the experiment on MDA-MB-231; 30.3 µM (inactive) in the experiment on NCI-H522. Further, the GI50 in the experiment on OVCAR-8 was 17.5 µM (inactive); in the experiment on RPMI-8226, 11.2 µM (inactive); in the experiment with SF-295, 13.5 µM (inactive); in the experiment with SF-539, 6.67 µM (inactive); in the experiment with SN12C, > 100 µM (inactive); with SNB-75 it was 36.9 µM (inactive). For the same molecule, the GI50 in the experiment on UACC-62 is 20.5 µM (inactive); in the experiment on UO-31, 13.5 µM (inactive).
For `CC1=C(N2CC2)C(=O)C(C)=C(N2CC2)C1=O`, the GI50 is 0.0702 µM (active) with 786-0; 0.161 µM (active) with HCC 2998; 0.206 µM (active) with HCT-116; 0.17 µM (active) in the experiment on HOP-92; 0.175 µM (active) in the experiment on HT-29; 0.215 µM (active) with IGROV-1. Further, the GI50 was 0.254 µM (active) with K562; 0.279 µM (active) in the experiment on KM12; 0.112 µM (active) with LOX IMVI; 0.0212 µM (active) with MCF7; 4.01 µM (inactive) in the experiment with MDA-MB-231; 0.0998 µM (active) with NCI-H522. Further, the GI50 in the experiment on OVCAR-8 is 0.188 µM (active); in the experiment on RPMI-8226 it was 0.201 µM (active); in the experiment with SF-295 it was 0.127 µM (active); in the experiment with SF-539, 0.134 µM (active); in the experiment on SN12C, 0.113 µM (active); with SNB-75 it was 0.309 µM (active). Moreover, the GI50 in the experiment with UACC-62 was 0.0579 µM (active); in the experiment with UO-31 it was 0.0912 µM (active).
For `Cc1c(F)c(N)c2c(=O)cc(-c3ccc(N)c(F)c3)oc2c1F` [AMINOFLAVONE], the GI50 with 786-0 was 14.2 µM (inactive); in the experiment with HCC 2998 it was 19 µM (inactive); in the experiment with HCT-116, 12.1 µM (inactive); in the experiment on HOP-92, 23 µM (inactive); in the experiment with HT-29, 33.7 µM (inactive); in the experiment on IGROV-1, 0.0723 µM (active). In addition, the GI50 is 0.279 µM (active) in the experiment on K562; 21.9 µM (inactive) in the experiment with KM12; 21.3 µM (inactive) in the experiment with LOX IMVI; 0.0156 µM (active) in the experiment with MCF7; 18.7 µM (inactive) in the experiment on MDA-MB-231; 9.71 µM (inactive) with NCI-H522. Further, the GI50 was 19.6 µM (inactive) with OVCAR-8; 14.9 µM (inactive) in the experiment with RPMI-8226; 15.6 µM (inactive) in the experiment with SF-295; 14.9 µM (inactive) with SF-539; 17.1 µM (inactive) in the experiment with SN12C; 26.7 µM (inactive) with SNB-75. Further, the GI50 with UACC-62 is 4.73 µM (inactive); in the experiment with UO-31, 5.33 µM (inactive).

(Values after ChEMBL document CHEMBL1201862, “PubChem BioAssay data set” (2004).)
